The text below walks through data of patent EP0952771B1, “NOVEL SAPONIN COMPOSITIONS AND USES THEREOF” (priority 1996, dated 1998).

One data set relates to E.G7-OVA target cells. Kind of data set: Cytotoxic T lymphocyte (CTL) 51Cr cytotoxicity assay with splenic mononuclear cells of immunized mice. The format is in vivo, C57BL/6 mice. The conditions noted are these: subcutaneously at week 1, 3 and 5. As to the method: (§1) All experiments were carried out in C57BL/6 mice (female, 8-12 weeks of age). The synergistic adjuvant-effect of the QS-21/QS-7 mixtures was assessed by two parameters: (1) the ability of these mixtures to improve antibody titers to a subunit antigen, ovalbumin, in mice; and (2) the ability of these mixtures to improve an ovalbumin-specific cytotoxic T lymphocyte (killer cell) response in mice.
The experimental techniques were the following. The mice were immunized subcutaneously at week 1, 3, and 5 with 0.2 ml of the indicated formulations in phosphate-buffered saline. Mice were immunized in groups of five. Sera and spleens were harvested at weeks 7 to 9. Sera was assayed for anti-ovalbumin antibody response by enzyme immunoassay. Briefly, a 96 well Immulon plate was coated with 10 µg/ml ovalbumin in phosphate-buffered saline (PBS) overnight at 4°C. These plates were blocked with 10% normal goat serum in PBS (diluent) for one hour at room temperature. Serial 1:10 dilutions of serum were made in diluent and were incubated on the plates for one hour at room temperature or overnight at 4°C. An enzyme conjugate of anti-mouse IgG (or anti-mouse IgG subclass) was diluted in diluent and incubated on the plate. A colorimetric enzyme substrate, tetramethylbenzidine, was used to assay for binding of anti-ovalbumin antibody. Spleens from immunized mice were used to assay for the cytotoxic T lymphocyte (CTL) response. The effector cells for the (CTL) assay were splenic mononuclear cells from the harvested spleens. The antigen-positive target cells for the assay were E.G7-OVA cells, which are an MHC class II antigen-negative EL4 mouse cell line, transfected with the ovalbumin gene. […] EL4 cells were used as an ovalbumin-negative target cell line. Prior to assay, splenic mononuclear cells were stimulated with antigen to induce maturation of precursor CTL in the effector cell population. The antigens used for stimulation were mitomycin C treated E.G7-OVA cells (incubated with spleen cells at a ratio of 20:1 spleen cells: E.G7-OVA cells) or denatured ovalbumin (25 µg/ml). […]

A further data set concerns anti-ovalbumin antibody. Kind of data set: Anti-ovalbumin antibody response in serum by enzyme immunoassay. In kind it is in vivo, C57BL/6 mice. Particulars: 0.625 µg given individually; titer not higher than no adjuvant. As to the method:
as §1
The experimental techniques were the following. The mice were immunized subcutaneously at week 1, 3, and 5 with 0.2 ml of the indicated formulations in phosphate-buffered saline. Mice were immunized in groups of five. Sera and spleens were harvested at weeks 7 to 9. Sera was assayed for anti-ovalbumin antibody response by enzyme immunoassay. Briefly, a 96 well Immulon plate was coated with 10 µg/ml ovalbumin in phosphate-buffered saline (PBS) overnight at 4°C. These plates were blocked with 10% normal goat serum in PBS (diluent) for one hour at room temperature. Serial 1:10 dilutions of serum were made in diluent and were incubated on the plates for one hour at room temperature or overnight at 4°C. An enzyme conjugate of anti-mouse IgG (or anti-mouse IgG subclass) was diluted in diluent and incubated on the plate. A colorimetric enzyme substrate, tetramethylbenzidine, was used to assay for binding of anti-ovalbumin antibody. […]

Another data set has as its system ovalbumin antigen. The conditions noted are these: doses below 2.5 µg; cited from earlier work.
The test system of another data set is mice. Particulars: mouse, in vivo; cited from earlier work.
The next data set has as its system ovalbumin. Particulars: at 2.5 µg or lower; cited from earlier work.

Regarding QS-21, the “stimulating a CTL response” value in the data set with E.G7-OVA target cells (saponin dose 0.625 µg given alone with ovalbumin) was “ineffective”; in the data set with E.G7-OVA target cells (saponin dose 1.25 µg given alone with ovalbumin), “ineffective”; in the data set with E.G7-OVA target cells (saponin dose 20 µg given alone with ovalbumin), “highly effective”. In addition, the “titer compared with no adjuvant” value with anti-ovalbumin antibody is given as “suboptimal”. The “adjuvant for raising an antibody response to the ovalbumin antigen” value in the data set with ovalbumin antigen was “ineffective”. Moreover, the toxicity in mice result with mice was “least toxic”. Also, in the data set on ovalbumin, the “cytotoxic T lymphocyte (CTL) response to ovalbumin” value is “minimal”.
